Test results as given in patent EP4729061A1, “USE OF AKT INHIBITOR IN PREPARATION OF DRUG FOR PREVENTING OR TREATING BREAST CANCER” (Nanjing Chia Tai Tianqing Pharmaceutical Co., Ltd., priority 2023, dated 2024).
pIC50: −log10 of the molar value.

Experiments:
Assay in all cases: Cell proliferation inhibition, CTG (CelltiterGlo) method, alone or combined with fulvestrant
Type in all cases: cell-based
[1] = test system: CAMA-1 Cells; conditions: compound alone; for pIC50: Homo sapiens, CAMA-1, 168 h, 7 days
Protocol: (§1) a). BT-474 cells were cultured in Hybri-Care medium supplemented with 1% antibiotics and 10% FBS, and incubated in the condition of 37°C with 5% CO2; b). MCF-7 cells were cultured in EMEM medium supplemented with 1% antibiotics, 0.01 mg/mL insulin, and 10% FBS, and incubated in the condition of 37°C with 5% CO2; c). ZR-75-1 cells were cultured in RPMI-1640 medium supplemented with 1% antibiotics and 10% FBS, and incubated in the condition of 37°C with 5% CO2; d). T47D cells were cultured in RPMI-1640 medium supplemented with 1% antibiotics, 0.2 U/mL insulin, and 10% FBS, and incubated in the condition of 37°C with 5% CO2; e) CAMA-1 cells were cultured in EMEM medium supplemented with 1% antibiotics and 10% FBS, and incubated in the condition of 37°C with 5% CO2.
(§2) a). Cells were routinely cultured until reaching 80%-90% confluence and when the required cell number was reached, they were harvested; b). Resuspended in the corresponding medium, counted, and prepared into a cell suspension with appropriate density; c). The cell suspension was added to a 384-well plate at 40 µL per well. Table 1. Plating densities of different cell lines
(§3) d). The cells were cultured overnight in an incubator at 37°C with 5% CO2 .
a). The compound of Formula (A) was serially diluted 3-fold for 10 concentrations starting from a stock solution of 60 mM (using the monofumarate dihydrate of the compound of Formula (A), with the concentration calculated based on the free base of the compound of Formula (A); the compound of Formula (A) or salt thereof was prepared with reference to the preparation method disclosed in WO2022017448A1); b). […] Cells supplemented with DMSO served as control wells for high reading values; j). Cell-free medium served as control wells for low reading values. […]
a). […] The chemiluminescent signal values were read using an Envision instrument.
Using the inhibition rate data measured by monotherapy or single-concentration combination therapy in Section 2.4, IC50 was calculated with GraphPad Prism 8 software. […]

[2] = test system: MCF-7 Cells; conditions: compound alone; for pIC50: Homo sapiens, MCF7, 168 h, 7 days; for Maximum Inhibition Rate on MCF-7 Cells: maximum value fitted by GraphPad Prism 8
Protocol: as §1, §2, §3
(§4) a). The compound of Formula (A) was serially diluted 3-fold for 10 concentrations starting from a stock solution of 60 mM (using the monofumarate dihydrate of the compound of Formula (A), with the concentration calculated based on the free base of the compound of Formula (A); the compound of Formula (A) or salt thereof was prepared with reference to the preparation method disclosed in WO2022017448A1); b). Fulvestrant was diluted from 10 mM to 2 mM with DMSO, then serially diluted 3-fold for 10 concentrations; c). Fulvestrant was diluted from 2 mM to 0.2 mM with DMSO, then serially diluted 3-fold for 10 concentrations; d). Fulvestrant was diluted from 0.2 mM to 2 µM with DMSO; e). Fulvestrant was diluted from 2 µM to 0.8 µM with DMSO; f). Fulvestrant was diluted from 2 µM to 0.3 µM with DMSO; g) Fulvestrant was diluted from 0.8 µM to 0.08 µM with DMSO; h). The final concentration of DMSO was 0.1%; i). Cells supplemented with DMSO served as control wells for high reading values; j). Cell-free medium served as control wells for low reading values.
24 Hours after MCF-7, T47D, and CAMA-1 cells were plated, the compound was administered alone. For the compound of Formula (A): 20 nL of the compound prepared in step 2.3 a) + 20 nL of DMSO were added. For compound fulvestrant: 20 nL of the compound prepared in step 2.3 c) + 20 nL of DMSO were added.
24 Hours after MCF-7 cells were plated, the compound of Formula (A) was administered in combination with fulvestrant: 20 nL of the compound prepared in step 2.3 a) + 20 nL of the compounds prepared in step 2.3 c), e), and f). […]

[3] = test system: ZR-75-1 Cells; conditions: compound alone; for pIC50: Homo sapiens, ZR-75-1, 168 h, 7 days; for Maximum Inhibition Rate on ZR-75-1 Cells: maximum value fitted by GraphPad Prism 8
Protocol: as §1, §2, §3, §4
(§5) 24 Hours after BT474 and ZR-75-1 cells were plated, the compound was administered alone. For the compound of Formula (A): 20 nL of the compound prepared in step 2.3 a) + 20 nL of DMSO were added. For the compound fulvestrant: 20 nL of the compound prepared in step 2.3 b) + 20 nL of DMSO were added.
(§6) 24 Hours after BT474 and ZR-75-1 cells were plated, the compound of Formula (A) was administered in combination with fulvestrant: 20 nL of the compound prepared in step 2.3 a) + 20 nL of the compounds prepared in step 2.3 b) and d).
(§7) Fulvestrant for point-to-point combination (nM): 1000, 333, 111, 37, 12.3, 4.1, 1.37, 0.46, 0.15, 0.05, which are respectively combined with the gradient concentrations of the compound of Formula (A); Fulvestrant for single-concentration combination (nM): 1000, 1, which are respectively combined with the gradient concentrations of the compound of Formula (A).
(§8) The compound of Formula (A) (nM): 30000, 10000, 3333, 1111, 370, 123, 41.2, 13.7, 4.57, 1.52; • Fulvestrant for point-to-point combination (nM): 100, 33.3, 11.1, 3.7, 1.23, 0.41, 0.14, 0.046, 0.015, 0.005, which are respectively combined with the gradient concentrations of the compound of Formula (A); • Fulvestrant for single-concentration combination (nM): 1.2, 0.14, which are respectively combined with the gradient concentrations of the compound of Formula (A). d). The cell culture plates were centrifuged at 1000 rpm for 1 min, then placed in an incubator at 37°C with 5% CO2 for 7 days.
(§9) a). 40 µL of CTG reagent (CelltiterGlo kit) was added to each well, placed on a rapid shaker for 2 minutes of oscillation, centrifuged at 1000 rpm for 1 min, and then left at room temperature in the dark for 30 minutes; b). […]

[4] = test system: BT-474 Cells; conditions: compound alone; for pIC50: Homo sapiens, BT-474, 168 h, 7 days; for Maximum Inhibition Rate on BT-474 Cells: maximum value fitted by GraphPad Prism 8
Protocol: as §1, §2, §3, §4, §5, §6, §7, §8, §9

Row | Structure (SMILES) | pIC50 [1] | pIC50 [2] | Maximum Inhibition Rate on MCF-7 Cells [2] [%] | pIC50 [3] | Maximum Inhibition Rate on ZR-75-1 Cells [3] [%] | pIC50 [4] | Maximum Inhibition Rate on BT-474 Cells [4] [%] | Maximum Inhibition Rate on CAMA-1 Cells ([1]; maximum value fitted by GraphPad Prism 8) [%]
1 | C[C@]12CC[C@@H]3c4ccc(O)cc4C[C@@H](CCCCCCCCC[S+]([O-])CCCC(F)(F)C(F)(F)F)[C@H]3[C@@H]1CC[C@@H]2O (stereo partly drawn) [Fulvestrant, reference compound] | < 7.00 | 9.72 | 54.67 | < 6.00 | 43.96 | < 6.00 | 43.33 | –
2 | CC(C)NC[C@@H](C(=O)N1CCN(c2ncnc3c2[C@H](C)CC(=O)N3)[C@H]2C[C@H]21)c1ccc(Cl)cc1 [The compound of Formula (A), (R)-4-((1S,6R)-5-((S)-2-(4-chlorophenyl)-3-(isopropylamino)propanoyl)-2,5-diazabicyclo[4.1.0]heptan-2-yl)-5-methyl-5,8-dihydropyrido[2,3-d]pyrimidin-7(6H)-one] | 5.95 | 6.12 | 98.92 | 5.66 | 92.45 | 6.17 | 84.62 | 95.43
